pIC50: −log10 of the molar value. Read-outs that look alike come from different tables or passages of the source.
Key:
[1] = target: T1, hAT2 (Homo sapiens, UniProt P50052); assay: hAT2 receptor binding assay (SPA, [125I]-Sar1-Ile8-Angiotensin II); conditions: membrane of HEK-293 cells overexpressing hAT2; 0.1 nM 125I ligand
T1 construct: expressed in transfected cells; host or cells: HEK-293
T1 sequence (P50052 1-363): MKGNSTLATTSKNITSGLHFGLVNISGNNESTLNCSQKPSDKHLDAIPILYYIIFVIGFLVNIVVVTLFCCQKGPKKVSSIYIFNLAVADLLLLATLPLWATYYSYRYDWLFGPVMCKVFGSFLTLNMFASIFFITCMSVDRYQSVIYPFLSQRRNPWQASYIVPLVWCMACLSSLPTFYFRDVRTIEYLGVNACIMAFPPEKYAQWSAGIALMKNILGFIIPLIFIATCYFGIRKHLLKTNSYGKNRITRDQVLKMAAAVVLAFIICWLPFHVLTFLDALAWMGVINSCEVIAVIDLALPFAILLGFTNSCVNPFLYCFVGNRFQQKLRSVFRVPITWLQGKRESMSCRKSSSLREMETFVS
Method: hAT2 Receptor Binding Assay
Protease inhibitor mixture, free of ethylenediaminetetraacetic acid-1 tablets (Roche #11873580001) (50 mL plus one piece)
Experimental Methods and Steps
The reference ligand PD123319 and the test compound were prepared into a 750 μM mother liquor by DMSO; each compound was prepared into a solution of 8 concentration gradients (up to a concentration of 750 μM, 3-fold dilution) and 10 μl of the solution was added to a master of a 384-well plate per well.
The SPA beads were prepared to a mother liquor of 25 mg/ml by the buffer;
The isotope [^125I]-Sar1-Ile8-Angiotensin II was prepared into a mother liquor of 50 μCi/ml by adding pure water.
The cell membrane overexpressing hAT2 in HEK-293 cells was prepared to 2.5 mg/ml by the buffer.
200 nl of compound was aspirated from the mother plate with ECHO to each well of the 384-well test plate. ZPE was added to an equal volume of DMSO. (The concentration of the test compound in the reaction was diluted by 250 times).
A 50 ml membrane solution containing 10 μg/μl of magnetic beads and 0.05 μg/μl of AT2 was prepared, placed on a shaker and uniformly mixed. (100 rpm, 30 min). The test plate finally contained an hAT2 membrane with 1.25 μg/well and magnetic beads with 250 μg/well.
A 3.2 ml membrane liquid mixture was added to the compound test plate by using a Multidrop Combi pipette, and 25 μl was added to each well.
A 0.2 nM solution was prepared with 50 μCi/ml of isotope [^125I]-Sar1-Ile8-Angiotensin II mother liquor by the buffer, and 0.2 nM of ^125I was added to the compound test plate with a Multidrop Combi pipette. A volume of 25 μl was added to each well. The final concentration of ^125I isotope is 0.1 nM.
The prepared test plate was placed on a shaker overnight at room temperature at 200 rpm.
The test plate was centrifuged with a centrifuge at 1200 rpm for 1 min.
The centrifuged test plate was read with Microbeta.

[2] = Determination of kinetic solubility; format: physicochemical; conditions: buffer solution pH 7.4, aqueous buffer, kinetic from dmso stock, pH 7.4, 24 hours at room temperature, theoretical maximum 200 μM
Method: The to-be-tested compound was dissolved in DMSO to prepare a 10 mmol/L stock solution. 980 μL of dissolution medium was pipetted into a 2 mL screw-capped glass vial by using a pipette (Eppendorf Research Company). 20 μL of the stock solution of each test compound and the QC sample were added to a buffer solution corresponding to a kinetic detection solution of pH 7.4. The final concentrations of the test compound and DMSO solution were 200 μM and 2%, respectively. The cover of the medicine bottle was screwed. The theoretical maximum concentration is 200 μM. The mixture was shaken at 880 rpm for 24 hours at room temperature. The vial was centrifuged for 30 minutes at 13,000 rpm. 200 μL of the supernatant was added to a 96-well plate by using a digital pipette. The solubility of the test compound was determined by high performance liquid chromatography, and the experimental results are shown in Table 2.

[3] = Plasma protein binding rate (PPB) test, equilibrium dialysis; format: in vitro ADME; conditions: human, 37°C
Method: (§1) In vitro protein binding rates of 0.2 μM, 2 μM, 10 μM of test compounds with Sprague-Dawley rats, beagle dogs, human plasma were determined by equilibrium dialysis.
(§2) The experiment will use a 96-well equilibrium dialysis plate (HTDialysis device) to determine the plasma protein binding rate of the to-be-tested compound and the control compounds.
(§3) Prior to the start of the experiment, the dialysis membrane was pretreated according to the instructions for use and the dialysis unit was assembled as required.
(§4) Blank plasma was taken from CD-1 mice, Sprague-Dawley rats, Beagle dogs, cynomolgus monkeys and humans (an anticoagulant is EDTA-K2, which is a commercial product purchased, or is collected and prepared by the Drug Evaluation Department of Wuxi AppTech, and is stored in a refrigerator below −60° C. before use). A certain volume of the to-be-tested compound or the control compound working solution was added to prepare plasma samples of the compound to be tested at a concentration of 0.2, 2, 10 μM and plasma samples of the control compound at a concentration of 2 μM (n=1). The organic phase content was ≤1%. First, a certain volume of a plasma sample containing the to-be-tested compound and the control compound was taken out into the sample receiving plate as a sample at zero time (T0 sample, n=3); secondly, a plasma sample containing the to-be-tested compound and the control compound was added to one side of the dialysis membrane (plasma end, n=3), and a certain volume of dialysis buffer (buffer end, n=3) was added to the other side of the dialysis membrane; then the dialysis plate was placed in a humidified incubator with 5% CO2 for incubation for 4 hours at 37±1° C.
(§5) After the incubation, a certain volume of the dialyzed buffer sample (F sample) and the dialyzed plasma sample (T sample) were transferred to the sample receiving plate, and all samples were subjected to protein precipitation for LC/MS/MS analysis. And the dissociation rate of the compound (% Unbound) was calculated by the following formula: % Unbound=100*[F]/[T], % Bound=100−% Unbound. Wherein, % Unbound is the dissociation rate of the compound; % Bound is the binding rate of the compound; [F] is the concentration of the compound at the buffer end of the dialysis plate; [T] is the concentration of the compound at the plasma end of the dialysis plate; and the experimental results are shown in Table 7.

[4] = as above; format: in vitro ADME, Sprague-Dawley rats; conditions: Sprague-Dawley, rat, 37°C, read-out: Plasma Protein Binding (%) SD Rat Plasma (converted)
Method: as §1, §2, §3, §4, §5

pIC50 [1]: 7.80
solubility at 24 h [2]: > 200 µM
fraction unbound at 4 h [3]: 0.002
fraction unbound at 4 h [4]: 0.002
SMILES: N#Cc1ccc2c(c1OCc1ccccc1)C[C@@H](C(=O)O)N(C(=O)[C@H](OC1CCCC1)c1ccccc1)C2 [Compound 111]

From patent US11021445B2, “Carboxylic acid derivative as AT2R receptor antagonist” (SHANDONG DANHONG PHARMACEUTICAL CO., LTD., priority 2017, dated 2021)
